Data on two compounds can be found in patent publication US7232813B2, “Neutral endopeptidase (NEP) and human soluble endopeptidase (hSEP) inhibitors for prophylaxis and treatment of neuro-degenerative disorders” (Solvay Pharmaceuticals B.V., priority 2004, dated 2007).

Assay [1] has as its system traumatic brain injury; CA3 hippocampus neurons. In words: Traumatic brain injury model (delayed neuronal death), i.c.v. administration. The format is in vivo, Wistar rats. To be noted: for Effect of treatment on neuronal loss in the CA3 hippocampus (ANOVA): 10 μg i.c.v.; for Neuroprotective effect with delayed administration: administered i.c.v. up to 8 hrs after trauma; for Effect on hippocampal neuronal loss: injection of 10 μg into the right cerebral ventricle; for Neuroprotective effect in the traumatic brain injury model: result in words; for Neuronal densities CA3 hippocampus: traumatized right side, 10 μg i.c.v. 15 min after trauma, 3 days after injury, mean ± SD. The procedure: (§1) Contusing device. The contusing device consisted of a stainless steel tube, 40 cm in length, perforated at 1 cm intervals to prevent air compression in the tube. Wistar rats, 230–270 g, were anesthetized with chloral hydrate, 400 mg/kg i.p., a craniotomy over the right hemisphere was made, the device guiding a falling weight onto the footplate resting upon the surface of the dura was placed perpendicular to the surface of the skull, and a force of 380 g×cm produced by a 20 g weight was selected to produce brain contusion. A maximum of 2.5 mm depression of the brain surface was allowed to avoid mechanical puncture of the dura. The center of the footplate was stereotaxically positioned 1.5 mm posterior and 2.5 mm lateral to the bregma. The rats underwent perfusion fixation 3 days after brain injury with a solution containing 4% paraformaldehyde in phosphate buffer.
Intracerebroventricular (i.c.v.) injections: Compounds were administered i.c.v. by means of a Hamilton syringe in a volume of 5–15 μl. Injections were performed over 5 min, 15 min−8 hrs after trauma using the following stereotaxic coordinates: AP=−0.5 mm, L=−2 mm and V=−5.5 in relation to bregma (Swanson, L. W. (1992) Brain Maps: Structure of the Rat Brain, Elsevier, Amsterdam).
(§2) Morphometric analysis in hippocampus. The damage in the hippocampal CA3 subfield was determined stereologically at 5 different rostrocaudal levels extending from 10.21 to 11.21 mm (Swanson, L. W. (1992) Brain Maps: Structure of the Rat Brain, Elsevier, Amsterdam) and throughout its mediolateral axis three days after traumatic injury. To quantitatively assess neuronal loss in the hippocampus, stereological disector technique (Cruz-Orive, L. M. & Weibel, E. R. (1990) Am. J. Physiol. 258, L148–L156) was used to estimate numerical density (NV) of pyramidal neurons. An unbiased counting frame (0.05 mm×0.05 mm; disector height 0.01 mm) and a high-aperture objective (×40) were used for sampling. Normal neurons were identified by the presence of the typical nuclei with clear nucleoplasm and distinct nucleolus surrounded by cytoplasm containing Nissl substance. The border between CA2 and CA3 subfields was considered as the point where the looser arrangement of large pyramidal cells goes into densely packed pyramidal cells of the subfield CA3. An arbitrary line connecting the lateral ends of the dentate granule cell layers was considered a junction between subfields CA3 and CA4.
Dose responses of the neuroprotective effect of the compounds with the formulae 6 and 7 when administered i.c.v. 15 min after trauma to adult Wistar rats were measured. Neuronal densities were determined in the CA3 hippocampal subfield as described in the methods. Densities of CA3 neurons±Standard Deviation (=SED) in 6 stereotactic levels in the left non-traumatized side of vehicle treated rats and the traumatized right side of vehicle treated rats and in rats treated with the compounds with the formulae 6 and 7 were measured and the results listed in table 1 below. In all of the following tables the numbers (“n”) indicate the number of rats per group, where applicable.

The test system is the same in assay [2]. Kind of assay: Traumatic brain injury model (delayed neuronal death), i.v. administration. The format is in vivo, Wistar rats. To be noted: for Neuronal densities CA3 hippocampus, i.v. administration: mean ± SD. The procedure:
as §1
Intravenous injections: Compounds were administered i.v. using a 1 ml syringe attached to a 26 gauge needle. The needle was inserted into the left femoral vein following a small skin incision. Compounds were administered in a volume of 1 ml/kg body weight over 30 sec.
as §2
(P<0.001; n=8 per group).

In the case of `O=C(O)CN1C(=O)[C@@H](NC(=O)C2(C[C@@H](CCc3ccccc3)C(=O)O)CCCC2)CCc2ccccc21` [Formula 6, (2R)-2-{[1-({[(3S)-1-(carboxymethyl)-2-oxo-2,3,4,5-tetrahydro-1H-1-benzaepin-3-yl]amino}carbonyl)cyclopentyl]methyl}-4-phenylbutanoic acid], the “Effect of treatment on neuronal loss in the CA3 hippocampus (ANOVA)” value in assay [1] is “significant protective effect”. The “Neuroprotective effect with delayed administration” value in assay [1] is “still evident”. In addition, in assay [1], the “Effect on hippocampal neuronal loss” value was “partially prevented hippocampal neuronal loss”. Also, the “Neuroprotective effect in the traumatic brain injury model” value in assay [1] was “dose-dependent neuroprotective effects”. Besides, the “Neuronal densities CA3 hippocampus” value amounted to 112.5 ± 11.40 cells × 10^3/mm^3 in assay [1] (stereotactic level 10.21); 103.75 ± 11.80 cells × 10^3/mm^3 in assay [1] (stereotactic level 10.41); 101.75 ± 14.80 cells × 10^3/mm^3 in assay [1] (stereotactic level 10.61); 98.50 ± 10.68 cells × 10^3/mm^3 in assay [1] (stereotactic level 10.81); 96.75 ± 13.98 cells × 10^3/mm^3 in assay [1] (stereotactic level 11.01); 101.75 ± 15.17 cells × 10^3/mm^3 in assay [1] (stereotactic level 11.21).

As to `O=C(O)CN1C(=O)[C@@H](NC(=O)C2(C[C@@H](CCc3cccc4ccccc34)C(=O)O)CCCC2)CCc2ccccc21` [Formula 7, (2R)-2-{[1-({[(3S)-1-(carboxymethyl)-2-oxo-2,3,4,5-tetrahydro-1H-1-benzazepin-3-yl]amino)carbonyl)cyclopentyl]methyl}-4-(1-naphthyl)butanoic acid], the “Effect of treatment on neuronal loss in the CA3 hippocampus (ANOVA)” value in assay [1] is “significant protective effect”; in assay [2] (both tested doses (30 and 300 mg/kg i.v.), P<0.001, n=8 per group) it was “significant protective effect”. The “Neuroprotective effect with delayed administration” value in assay [1] is “still evident”. In addition, the “Effect on hippocampal neuronal loss” value in assay [1] and in assay [2] (injection of 30 or 300 mg/kg i.v.) was “partially prevented hippocampal neuronal loss” in each case. For the same compound, in assay [1], the “Neuroprotective effect in the traumatic brain injury model” value is on record as “dose-dependent neuroprotective effects”. Besides, the “Neuronal densities CA3 hippocampus” value is 107.25 ± 15.19 cells × 10^3/mm^3 in assay [1] (stereotactic level 10.21); 100.25 ± 14.71 cells × 10^3/mm^3 in assay [1] (stereotactic level 10.41); 93.50 ± 16.96 cells × 10^3/mm^3 in assay [1] (stereotactic level 10.61); 93.50 ± 12.36 cells × 10^3/mm^3 in assay [1] (stereotactic level 10.81); 101.50 ± 18.81 cells × 10^3/mm^3 in assay [1] (stereotactic level 11.01); 107.75 ± 16.51 cells × 10^3/mm^3 in assay [1] (stereotactic level 11.21). Also, the “Neuroprotection of 300 mg/kg compared with 30 mg/kg (ANOVA)” value in assay [2] (i.v., 300 mg/kg vs 30 mg/kg) is on record as “significantly better neuroprotection”. The “Neuronal densities CA3 hippocampus, i.v. administration” value came to 107.50 ± 6.99 cells × 10^3/mm^3 in assay [2] (stereotactic level 10.21, 30 mg/kg i.v.); 126.50 ± 5.53 cells × 10^3/mm^3 in assay [2] (stereotactic level 10.21, 300 mg/kg i.v.); 102.25 ± 7.89 cells × 10^3/mm^3 in assay [2] (stereotactic level 10.41, 30 mg/kg i.v.); 117.75 ± 4.95 cells × 10^3/mm^3 in assay [2] (stereotactic level 10.41, 300 mg/kg i.v.); 100.75 ± 9.91 cells × 10^3/mm^3 in assay [2] (stereotactic level 10.61, 30 mg/kg i.v.); 110.00 ± 7.01 cells × 10^3/mm^3 in assay [2] (stereotactic level 10.61, 300 mg/kg i.v.). In addition, the “Neuronal densities CA3 hippocampus, i.v. administration” value in assay [2] (stereotactic level 10.81, 30 mg/kg i.v.) is listed as 101.75 ± 9.65 cells × 10^3/mm^3; in assay [2] (stereotactic level 10.81, 300 mg/kg i.v.) it was 106.75 ± 7.48 cells × 10^3/mm^3; in assay [2] (stereotactic level 11.01, 30 mg/kg i.v.), 111.25 ± 7.55 cells × 10^3/mm^3; in assay [2] (stereotactic level 11.01, 300 mg/kg i.v.) it was 116.50 ± 9.06 cells × 10^3/mm^3; in assay [2] (stereotactic level 11.21, 30 mg/kg i.v.) it was 117.75 ± 10.11 cells × 10^3/mm^3; in assay [2] (stereotactic level 11.21, 300 mg/kg i.v.), 125.25 ± 5.01 cells × 10^3/mm^3.
